{"source": "patent US20060234919A1", "about": "“Use” (priority 2001, published 2006)", "assay_type_in_all_cases": "in vivo, rat", "key": {"[1]": {"tested_on": "cyclophosphamide-induced cystitis", "assay": "cyclophosphamide-induced cystitis, plasma protein extravasation (Evans blue)", "settings": "oxytocin pre-treatment, 4 h", "experimental": "Cyclophosphamide (100 mg/kg) was injected i.p. in barbiturate-anaesthetised rats for the induction of acute cystitis. Control animals were injected with an appropriate volume (4 ml/kg) of the vehicle (154 mmol/l NaCl). Five min prior to the administration of cyclophosphamide or vehicle all animals were injected i.v. with the protein marker, Evans blue (20 mg/kg). At 4 h, when increases in vascular permeability have reached maximum values in this model (Aramori I, Zenkoh J, Morikawa N, O'Donnell N. Asano M, Nakamur K et al. Novel subtype-selective nonpeptide bradykinin antagonists FR167334 and FR173657. Mol Pharmacol 1997; 51: 171-176), the uriny bladder was excised following exsanguination, and the total tissue content of Evans blue was determined as above.\nPlasma protein extravasation in the urinary bladder of anaesthetised rats was made 4 h after i.p. injection of cyclophosphamide (100 mg/kg). Control animals were treated with appropriate volumes of the vehicles ([…] silicone oil or 4 ml/kg 154 mmol/l NaCl solution, respectively). Oxytocin (1 mg/ml) was injected s. c. 1 h before administration of xylene or cyclophosphamide while control rats received DMSO (0.5 ml/kg, s. c.). Plasma protein extravasation is given as total tissue content of the protein marker, Evans blue, given i. v. (20 mg/kg) 5 min prior to the induction of cystitis. […]"}, "[2]": {"tested_on": "caerulein-induced pancreatitis", "assay": "caerulein-induced pancreatitis, pancreatic edema", "settings": "subcutaneous pre-treatment 1 mg/ml; caerulein alone 8.11±0.96, control 3.12±0.52", "experimental": "Caerulein-induced pancreatitis: Female Sprague-Dawley rats (200-250 g) were anaesthetized with pentobarbitone sodium and phenobarbitone sodium (each 40 mg/kg, i.p.). The cholecystokinin analogue caerulein (8 nmol/kg in 2 h) was infused via one jugular vein for exocrine hyperstimulation and induction of acute edematous pancreatitis (Lampel M, Kern H F. Acute interstitial pancreatitis in the rat in-duced by excessive doses of a pancreatic secretagogue. Virchows Arch (Pathol Anat) 1997; 373: 97-117), while control animals were infused with a corresponding volume (4 ml/kg/h) of phosphate-buffered saline. Pre-treatment with the kininase II inhibitor captopril ([…], i. p.) was given 30 min prior to the infusion of caerulein. At the end of the experiment, the animals were sacrificed with an overdose of pentobarbital sodium. The pancreatic tissue was dried for 16 h in a vacuum centrifuge and the edema was quantified as fluid wt. per dry wt. of the tissue. For the determination of lipase activity in serum, the blood was collected following decapitation in separate groups of rats. The pancreas of these animals was excised an placed immediately into 2 ml of a 154 mmol/l solution of NaCl. After centrifugation at 2×10^5 m/s^2 for 25 min the supernatant was stored at −80° C. All samples were assayed for lipase activity (lipase test Boehringer Mannheim, Germany)."}, "[3]": {"tested_on": "myeloperoxidase", "assay": "carrageenan induced myeloperoxidase accumulation in the hindpaw", "settings": "1000 μg/kg s.c.; 6 hours after treatment; saline controls 5.4±1.1; p<0.01", "experimental": "The rats were treated s.c. with oxytocin (1000 μg/kg) (n=6) or saline (n=6) immediately before the carrageenan injection. The accumulation of myeloperoxidase in the rat right hindpaw was measured 6 hours after the treatment with oxytocin or saline, and carrageenan. To determine the recruitment of neutrophils in response to the carrageenan induced inflammation in the rat hindpaw, the paws were weighed and homogenised in 10 ml 0.5% hexadecyltrimethyl-ammonium bromide (Sigma Chemical Co, USA), and freeze-thawed, whereafter the myeloperoxidase activity of the supernatant was assessed. The enzyme activity was determined spectrophotometrically as the change in absorbance at 650 nm (25° C.) occuring in the redox reaction of H2O2-tetramethylbenzidine (Sigma Chemical Co, USA) catalysed by myeloperoxidase. Values are expressed as myeloperoxidase units/g tissue. […] The myeloperoxidase concentration (i.e. the neutrophil recruitment) in the hindpaw was 3.5±0.72 units/g tissue in the oxytocin-treated rats compared to 5.4±1.1 units/g in the saline-treated controls (p<0.01) (FIG. 6)."}, "[4]": {"tested_on": "hydrochloric acid-induced cystitis", "assay": "urinary frequency in rats with hydrochloric acid-induced cystitis", "description": "Twenty Sprague-Dawley rats (body weight 220-250 g) were randomly divided into four equal groups: group 1, normal controls; group 2, a sham treatment (HCl-induced IC, with subsequent saline instillation); group 3, a sham treatment (HCl-induced IC, with subsequent acetic acid instillation); and group 4, stimulated (HCl-induced IC with oxytocin and acetic acid instillation). The IC animal model developed by Rivas et al. was used (Rivas D A, Chancellor M B, Shupp-Byme D, Shenot P J, McHugh K, McCue P. A molecular marker for the development of interstitial cystitis in a rat model: isoactin gene expression. J. Urol. 1997; 157: 1937-1940); IC was induced in groups 2-4 under general anaesthesia (using a combined subcutaneous injection with acepromazine 0.05 mg/kg, ketamine 50 mg/kg and xylazine 5 mg/kg). A sterile polyethylene catheter (outside diameter 1.27 mm; Becton Dickinson Company, Sparks, Md., USA) was inserted into the bladder through the urethra and all urine aspirated. […]\nThe micturition pattern was measured both before and 3 weeks after intravesical HCl instillation, using a Grass 79 Polygraph (Grass Instruments Co., Quincy, Mass., USA). Rats were placed into a metabolic cage and micturition recorded automatically for […] (17.00-09.00 hours); all rats were assessed at the same time of the day to minimise the effect of the circadian cycle on micturition frequency and volume. […]"}}}
{"substance": "Oxytocin", "values": [{"measurement": "plasma protein extravasation, Evans blue accumulation in the bladder", "setting": "[1]; cyclophosphamide 100 mg/kg i.p., cyclophosphamide alone 9.76±4.12", "result": "2.56 ± 1.28", "unit": "mg"}, {"measurement": "plasma protein extravasation, Evans blue accumulation in the bladder", "setting": "[1]; rats given the vehicle of cyclophosphamide", "result": "2.11 ± 1.37", "unit": "mg"}, {"measurement": "water content of the pancreatic tissue (edema formation)", "setting": "[2]", "result": "5.25±0.68", "unit": "g/g d. wt."}, {"measurement": "myeloperoxidase concentration (neutrophil recruitment) in the hindpaw", "setting": "[3]", "result": "3.5±0.72", "unit": "units/g tissue"}, {"measurement": "micturition frequency", "setting": "[4]; group 4 (HCl-induced IC with oxytocin 1 mg/ml instillation) vs group 2+3, after 3 weeks, P=0.05", "result": "significantly less"}, {"measurement": "urine volume per micturition", "setting": "[4]; group 4 (oxytocin instillation) vs group 2+3", "result": "not significantly higher"}]}
